Values quoted from earlier work, collected in patent US20200003795A1, “DETERMINATION OF ANALYTES IN LIQUID SAMPLES BY MASS SPECTROMETRY” (Quest Diagnostics Investments Incorporated, priority 2001, published 2020).
Where two headings read alike, the source gives them in different places.

Legend:
[1] = circulating drug, at a therapeutic level of 1-10 μg/mL
[2] = not given; remark: listed apart in the source

Therapeutic levels in blood (blood, trough) | mean-time-to-peak concentration (on administration) | Structure (SMILES) | bound to protein [1] | therapeutic level ([2]; circulating) | half-life ([2]; multiple doses) | half-life ([2]; single dose)
3 to 18 ng/mL | 1 to 2 h | CO[C@H]1C[C@@H]2CC[C@@H](C)[C@@](O)(O2)C(=O)C(=O)N2CCCC[C@H]2C(=O)O[C@H]([C@H](C)C[C@@H]2CC[C@@H](O)[C@H](OC)C2)CC(=O)[C@H](C)/C=C(\C)[C@@H](O)[C@@H](OC)C(=O)[C@H](C)C[C@H](C)/C=C/C=C/C=C/1C [sirolimus] | – | – | – | –
– | – | Nc1nnc(-c2cccc(Cl)c2Cl)c(N)n1 [lamotrigine, 6-(2,3-dichlorophenyl)-1,2,4-triazine-3,5-diamine] | about 55% | 1 to 10 µg/mL | 7.5 to 23.1 h | 6.4 to 30.4 h
